Measurements published in patent US20260092868A1, “METHOD FOR SCREENING FOR AUTOPHAGY MODULATOR” (THE ASAN FOUNDATION, priority 2022, published 2026).

Tests used:
SNU475 cells [1] = test: Optical diffraction tomography (ODT) imaging of vesicles and organelles in SNU475 cells; format: cell-based, human
Protocol: To confirm changes in vesicles upon treatment with an autophagy modulator, SNU475 cells, which are a human hepatoma cell line, were treated with 10 μM thapsigargin, which is an autophagy activator, and then the changes in vesicles in the cells were examined.
More specifically, a SNU475 cell line was prepared in a TomoDish and the SNU475 cells were treated with 10 μM thapsigargin, and then optical diffraction tomography (ODT) images were generated by using HT-2H fluorescence holotomography (Tomocube).
SNU475 cells were treated with 10 μM thapsigargin to induce ER stress, and then changes in the refractive index and radius of vesicles produced in the cells were measured on the basis of images confirmed in Example 1, and the results thereof are shown in FIG. 2. In addition, SNU475 cells were treated with 10 μM thapsigargin, and the number and volume of vesicles in the SNU475 cells treated with thapsigargin were observed over time for 2 hours, and the results thereof are shown in FIG. 3.
To confirm statistical changes in the density and refractive index of vesicles and organelles upon treatment with thapsigargin, the densities and refractive indices of cells before and after SNU475 cells were treated with thapsigargin (10 μM) were compared. In addition, to confirm changes in the densities of organelles upon treatment with thapsigargin, the refractive indices of a nucleolus (No), an endoplasmic reticulum (ER), a cytosol (Cyt), and a plasma membrane (PM) were measured.
To confirm whether the same results as the case of thapsigargin can be obtained upon treatment with autophagy modulators other than thapsigargin, SNU475 cells were treated with each of CPA (20 μM) and TC (60 ug/mL) to induce ER stress, and then changes in vesicles produced in the cells were observed using HT-2H fluorescence holotomography (Tomocube). For observation, optical diffraction tomography (ODT) images 10 hours after treatment with CPA and ODT images 2 hours after treatment with TC were generated, and the results thereof are shown in FIG. 8.

SNU475 cells [2] = test: Fluorescent tracker (ER-tracker, lysosome-tracker, mito-tracker) imaging by super-resolution microscopy (Airyscan); format: cell-based, human
Protocol: Changes in the endoplasmic reticulum and lysosomes were measured using a confocal microscope and fluorescent trackers. As the fluorescent trackers, ER-tracker, which enables the specific observation of only the endoplasmic reticulum, and lysosome-tracker, which enables the specific observation of only lysosomes, were used.
Specifically, SNU475 cells were treated with thapsigargin (10 μM) and then stained with ER-tracker or lysosome-tracker, the kinetics of the endoplasmic reticulum and lyosomes were analyzed by super-resolution microscopy (Airyscan), and the results thereof are shown in FIG. 5.
To confirm that high-density vesicles produced upon treatment with thapsigargin are specific to the endoplasmic reticulum, the kinetics of mitochondria were analyzed in the same manner as in 4.1 above by using mito-tracker, which is a mitochondria-specific tracker, and the results thereof are shown in FIG. 6.

SNU475 cells [3] = test: ODT setup linking three-dimensional ODT imaging and two-dimensional fluorescence; format: cell-based, human; details: SNU475 cells after treatment with thapsigargin, ODT plus 2D fluorescence
Protocol: Additionally, changes in the endoplasmic reticulum and lysosomes in SNU475 cells treated with thapsigargin were analyzed using an ODT setup that can link three-dimensional ODT imaging and two-dimensional fluorescence. […] It was also confirmed that vesicles were produced in the ER region, followed by fusion with lysosomes.

CCPG1 = test: Colocalization of ER-phagy receptors with LC3 by immunofluorescence (IF); format: cell-based; details: 10 μM thapsigargin, IF (FIG. 7)
Protocol: (§1) To measure the activation levels of an autophagy marker and an ER-phagy marker after treatment with thapsigargin, the colocalization of ER-phagy receptors was measured.
(§2) More specifically, after treatment with thapsigargin (10 μM), the activation of CCPG1, FAM134B, RTN3, and SEC62 was examined by immunofluorescence (IF) analysis, and then the results thereof are shown in FIG. 7.

FAM134B = test: as above; format: cell-based; details: 10 μM thapsigargin, IF (FIG. 7)
Protocol: as §1, §2

RTN3 = test: as above; format: cell-based; details: 10 μM thapsigargin, IF (FIG. 7)
Protocol: as §1, §2

SEC62 = test: as above; format: cell-based; details: 10 μM thapsigargin, IF (FIG. 7)
Protocol: as §1, §2

[4] = 10 μM thapsigargin, observed for 2 hours (FIG. 3)

Compound | change in the refractive index of vesicles over time (SNU475 cells [1]; 10 μM thapsigargin (FIG. 2A)) | change in the radius of vesicles over time (SNU475 cells [1]; 10 μM thapsigargin (FIG. 2B)) | ER-phagy induction (SNU475 cells [1]; 10 μM thapsigargin (FIG. 4)) | density of induced vesicles compared with the endoplasmic reticulum (SNU475 cells [1]; 10 μM thapsigargin (FIG. 4)) | generation of high-density vesicles (SNU475 cells [1]; 10 μM thapsigargin, ODT images (FIG. 1)) | change in the total number of vesicles over time (SNU475 cells [1]; [4]) | change in volume of vesicles over time (SNU475 cells [1]; [4]) | density of the endoplasmic reticulum upon treatment (SNU475 cells [1]; before and after 10 μM thapsigargin (FIG. 4C)) | production of vesicles and lysosomes containing ER components (SNU475 cells [2]; 10 μM thapsigargin, ER-tracker or lysosome-tracker (FIG. 5)) | time difference of production of large lysosomes relative to the ER (SNU475 cells [2]; 10 μM thapsigargin, lysosome-tracker (FIG. 5B)) | mitochondrial components in high-density vesicles (SNU475 cells [2]; thapsigargin, mito-tracker (FIG. 6)) | colocalization of high-density vesicles produced in the cytoplasm (SNU475 cells [3]) | activation of CCPG1 through colocalization with LC3 (CCPG1) | activation of FAM134B through colocalization with LC3 (FAM134B) | activation of RTN3 through colocalization with LC3 (RTN3) | activation of SEC62 through colocalization with LC3 (SEC62) | change in vesicles (SNU475 cells [1]; TC 60 ug/mL, ODT images 2 hours after treatment (FIG. 8B))
C/C=C(/C)C(=O)O[C@H]1C(C)=C2[C@H]([C@@H]1OC(=O)CCCCCCC)[C@@](C)(OC(C)=O)C[C@H](OC(=O)CCC)[C@@]1(O)[C@H]2OC(=O)[C@@]1(C)O [thapsigargin] | decreased over time | increased over time | induced | higher density than the endoplasmic reticulum | high-density vesicles were generated | decreased over time | increased over time | decreased | vesicles and lysosomes that contain ER components were produced | about 15 minutes | did not include mitochondrial components | specifically colocalized with the endoplasmic reticulum and lysosomes | activated | activated | activated | activated | –
tunicamycin [TC] | – | – | – | – | – | – | – | – | – | – | – | – | – | – | – | – | the same changes in the vesicles as those upon treatment with thapsigargin occurred
